Where “and” joins values, the source holds several entries; their conditions need not be identical. Equal entries are not always repeated. Toxic doses and inconclusive results are not listed. The calls were made as follows: active = survival T/C of 150% or more; inactive = T/C below 125% in these data.
Test system: P388 leukemia ip, CD2F1 mice, survival T/C
Test: NCI In Vivo Anticancer Drug Screen. Data for tumor model P388 Leukemia (intraperitoneal) in CD2F1 (CDF1) mice
Details: endpoint: median survival time, higher = longer survival
Summary of the method: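 Mice carrying the transplanted tumor received test compound or vehicle. Survival was recorded in each group, and the value is the treated-group measurement divided by that of the vehicle-treated control group.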

[1] = dose: 60.0 mg/kg/injection, schedule: Q01DX005 (ip), vehicle: saline with Tween-80
[2] = dose: 120.0 mg/kg/injection, schedule: Q01DX005 (ip), vehicle: saline with Tween-80
[3] = dose: 240.0 mg/kg/injection, schedule: Q01DX005 (ip), vehicle: saline with Tween-80
[4] = dose: 50.0 mg/kg/injection, schedule: Q01DX009 (ip), vehicle: Klucel (hydroxypropylcellulose) (HPC)
[5] = dose: 100.0 mg/kg/injection, schedule: Q01DX009 (ip), vehicle: Klucel (hydroxypropylcellulose) (HPC)
[6] = dose: 200.0 mg/kg/injection, schedule: Q01DX009 (ip), vehicle: Klucel (hydroxypropylcellulose) (HPC)
[7] = dose: 25.0 mg/kg/injection, schedule: Q01DX009 (ip), vehicle: saline with Tween-80
[8] = dose: 50.0 mg/kg/injection, schedule: Q01DX009 (ip), vehicle: saline with Tween-80
[9] = dose: 100.0 mg/kg/injection, schedule: Q01DX009 (ip), vehicle: saline with Tween-80
[10] = dose: 200.0 mg/kg/injection, schedule: Q01DX009 (ip), vehicle: saline with Tween-80
[11] = dose: 60.0 mg/kg/injection, schedule: Q01DX005 (ip), vehicle: saline
[12] = dose: 120.0 mg/kg/injection, schedule: Q01DX005 (ip), vehicle: saline
[13] = dose: 6.25 mg/kg/injection, schedule: Q01DX009 (ip), vehicle: saline with Tween-80
[14] = dose: 12.5 mg/kg/injection, schedule: Q01DX009 (ip), vehicle: saline with Tween-80

Measured: T/C

COC(=O)[C@@]12OC[C@]34[C@H]([C@@H](O)[C@@H]1O)[C@@]1(C)[C@H](O)C(=O)C=C(C)[C@@H]1C[C@H]3OC(=O)C(OC(C)=O)[C@@H]24 (some centres not stated)
inactive: dose: 0.1 micrograms/kg/injection, schedule: Q01DX009 (ip), vehicle: saline + alcohol 96 % of control | dose: 0.2 micrograms/kg/injection, schedule: Q01DX009 (ip), vehicle: saline + alcohol 102 % of control | dose: 0.5 micrograms/kg/injection, schedule: Q01DX009 (ip), vehicle: saline + alcohol 105 % of control | dose: 1.0 micrograms/kg/injection, schedule: Q01DX009 (ip), vehicle: saline + alcohol 93 % of control | dose: 2.0 micrograms/kg/injection, schedule: Q01DX009 (ip), vehicle: saline + alcohol 100 % of control | dose: 4.0 micrograms/kg/injection, schedule: Q01DX009 (ip), vehicle: saline + alcohol 88 % of control

N=c1c2ccccc2cc2c3ccccc3ccn12
inactive: [1] 115 % of control | [2] 99 % of control | [3] 108 % of control

Cc1ncc(C)c2c([N+](=O)[O-])cccc12
inactive: [4] 106 % of control | [5] 110 % of control | [6] 96 % of control

O=C1/C(=C/c2ccccc2[N+](=O)[O-])COc2ccccc21
inactive: [1] 97 % of control | [2] 103 % of control | [3] 97 % of control

CCCCC/C(C)=C\CBr
inactive: [7] 96 % of control | [8] 99 % of control | [9] 89 % of control

CCOC(=O)Cc1cccc(C)n1
inactive: [9] 100 % of control | [10] 109 % of control | dose: 400.0 mg/kg/injection, schedule: Q01DX009 (ip), vehicle: saline with Tween-80 104 % of control

CC1C(O)[C@@]2(OC[C@@]34C(=O)CC5(O)[C@H](CCC6Cc7nc8c(nc7C[C@]65C)CC5CC[C@@H]6C7=C[C@H]9O[C@@]%10(O[C@@](C)(CO)C[C@@H]%10O)C(C)[C@@]9(O)[C@]7(C)[C@@H](O)CC6[C@]5(C)C8)C3=CC[C@H]4C2C)OC1(C)C (some centres not stated)
inactive: dose: 10.0 micrograms/kg/injection, schedule: Q01DX005 (ip), vehicle: saline + alcohol 117 % of control and 121 % of control | dose: 20.0 micrograms/kg/injection, schedule: Q01DX005 (ip), vehicle: saline + alcohol 115 % of control and 117 % of control | dose: 40.0 micrograms/kg/injection, schedule: Q01DX005 (ip), vehicle: saline + alcohol 123 % of control and 124 % of control | dose: 40.0 micrograms/kg/injection, schedule: Q01DX009 (ip), vehicle: saline + alcohol 115 % of control

CCCCN(CCCC)CC(C)(O)CNc1cc(OC)cc2cccnc12 (configuration not stated)
inactive: dose: 25.0 mg/kg/injection, schedule: Q01DX005 (ip), vehicle: saline 101 % of control | dose: 50.0 mg/kg/injection, schedule: Q01DX005 (ip), vehicle: saline 107 % of control | dose: 100.0 mg/kg/injection, schedule: Q01DX005 (ip), vehicle: saline 98 % of control

CCN=C1C=CC(=C(c2ccc(N(CC)CC)cc2)c2ccc(N(CC)CC)cc2)c2ccccc21
inactive: dose: 6.25 mg/kg/injection, schedule: Q01DX005 (ip), vehicle: saline with Tween-80 110 % of control and 113 % of control | dose: 12.5 mg/kg/injection, schedule: Q01DX005 (ip), vehicle: saline with Tween-80 118 % of control (2×) and 119 % of control | dose: 25.0 mg/kg/injection, schedule: Q01DX005 (ip), vehicle: saline with Tween-80 115 % of control

CCN(CC)CCN(C)C(C)C(=O)Nc1ccccc1Cl (configuration not stated)
inactive: [11] 105 % of control | [12] 100 % of control

CCCCCCCCCCNCCS
inactive: dose: 5.0 mg/kg/injection, schedule: Q01DX009 (ip), vehicle: saline 91 % of control | dose: 10.0 mg/kg/injection, schedule: Q01DX009 (ip), vehicle: saline 91 % of control | dose: 20.0 mg/kg/injection, schedule: Q01DX009 (ip), vehicle: saline 95 % of control

O=C(N/N=C/c1cc(Cl)cc(Cl)c1O)c1ccccc1
inactive: dose: 100.0 mg/kg/injection, schedule: Q01DX001 (ip), vehicle: saline with Tween-80 96 % of control | dose: 200.0 mg/kg/injection, schedule: Q01DX001 (ip), vehicle: saline with Tween-80 98 % of control | dose: 400.0 mg/kg/injection, schedule: Q01DX001 (ip), vehicle: saline with Tween-80 103 % of control

O=C(CCCC(=O)Nc1cccc([N+](=O)[O-])c1)CC(=O)c1ccc([N+](=O)[O-])cc1
inactive: [1] 100 % of control | [2] 102 % of control | [3] 103 % of control

O=[N+]([O-])C1(Br)COC(c2cccc(O)c2)OC1 (configuration not stated)
inactive: dose: 3.12 mg/kg/injection, schedule: Q01DX009 (ip), vehicle: saline with Tween-80 99 % of control | [13] 97 % of control | [14] 111 % of control and 94 % of control

[Cu+2].[O-]/C(=N\N=C\c1ccccn1)c1ccc(Cl)cc1.[O-]/C(=N\N=C\c1ccccn1)c1ccc(Cl)cc1
inactive: dose: 50.0 mg/kg/injection, schedule: Q04DX002 (ip), vehicle: saline with Tween-80 90 % of control | dose: 100.0 mg/kg/injection, schedule: Q04DX002 (ip), vehicle: saline with Tween-80 93 % of control | dose: 200.0 mg/kg/injection, schedule: Q04DX002 (ip), vehicle: saline with Tween-80 90 % of control

Cc1ccc(S(=O)/C=C/c2ccccc2)cc1 (configuration not stated)
inactive: dose: 50.0 mg/kg/injection, schedule: Q01DX009 (ip), vehicle: other 103 % of control | dose: 100.0 mg/kg/injection, schedule: Q01DX009 (ip), vehicle: other 97 % of control | dose: 200.0 mg/kg/injection, schedule: Q01DX009 (ip), vehicle: other 101 % of control

COc1c2occc2c(N=Cc2c[nH]c3ccccc23)c2ccc(=O)oc12
inactive: dose: 50.0 mg/kg/injection, schedule: Q01DX005 (ip), vehicle: saline with Tween-80 92 % of control | dose: 100.0 mg/kg/injection, schedule: Q01DX005 (ip), vehicle: saline with Tween-80 93 % of control | dose: 200.0 mg/kg/injection, schedule: Q01DX005 (ip), vehicle: saline with Tween-80 86 % of control

C=CC(C)CC(N)C(=O)O (configuration not stated)
inactive: [11] 123 % of control | [12] 105 % of control | dose: 240.0 mg/kg/injection, schedule: Q01DX005 (ip), vehicle: saline 104 % of control

O=C(O)CCNS(=O)(=O)c1ccc2c(c1)-c1ccccc1C2
inactive: [7] 92 % of control | [8] 102 % of control and 104 % of control and 97 % of control | [9] 101 % of control and 107 % of control and 98 % of control | [10] 102 % of control and 124 % of control

CCOC(=O)c1nc(SC)sc1N
inactive: [1] 95 % of control | [2] 102 % of control

Fc1ccc(NC(=S)S)cc1
inactive: [13] 104 % of control | dose: 6.25 mg/kg/injection, schedule: Q04DX003 (ip), vehicle: saline 100 % of control | [14] 104 % of control | dose: 12.5 mg/kg/injection, schedule: Q04DX003 (ip), vehicle: saline 115 % of control | [7] 104 % of control | dose: 25.0 mg/kg/injection, schedule: Q04DX003 (ip), vehicle: saline 100 % of control

C[C@H](CCC1=NC(C)(C)CO1)C1CCC2[C@@H]3C(O)C[C@@H]4CC(O)CC[C@]4(C)C3CC[C@@]21C (some centres not stated)
inactive: [1] 90 % of control | [2] 87 % of control

O=S(=O)(Nc1ccc(O)c(Cl)c1)c1ccccc1
inactive: dose: 100.0 mg/kg/injection, schedule: Q04DX003 (ip), vehicle: saline with Tween-80 100 % of control | dose: 200.0 mg/kg/injection, schedule: Q04DX003 (ip), vehicle: saline with Tween-80 100 % of control | dose: 400.0 mg/kg/injection, schedule: Q04DX003 (ip), vehicle: saline with Tween-80 100 % of control

Cc1cc2c(cc1C)[n+](=O)c1c(n2[O-])CCC1
inactive: [1] 100 % of control | [2] 95 % of control

COc1cc(C2c3cc4c(cc3OC(C)(N3CCCC3)C2C)OCO4)cc(OC)c1OC (configuration not stated)
inactive: dose: 60.0 mg/kg/injection, schedule: Q01DX005 (ip), vehicle: Klucel (hydroxypropylcellulose) (HPC) 100 % of control | dose: 120.0 mg/kg/injection, schedule: Q01DX005 (ip), vehicle: Klucel (hydroxypropylcellulose) (HPC) 102 % of control | dose: 240.0 mg/kg/injection, schedule: Q01DX005 (ip), vehicle: Klucel (hydroxypropylcellulose) (HPC) 105 % of control

O=C(O)C(Cc1ccccc1)NP(=S)(c1ccccc1)c1ccccc1 (configuration not stated)
inactive: [4] 110 % of control | [5] 97 % of control | [6] 106 % of control
